Measurements from patent US9045563B2, “CXC chemokine receptor 4 (CXCR4) antagonistic polypeptide” (priority 2007, dated 2015).
Where two headings read alike, the source gives them in different places. Ends that are not written are not given here.

What was measured:
X4 tropic HIV-1 NL4-3 [1] = conditions: TZM-bl cells
Procedure: HIV inhibition test were performed by seeding 4000 P4-R5 MAGI cells (P. Charneau et al., J. Mol. Biol. 241: 651, 1994) in 100 μl of DMEM (10% FCS, 100 U/ml penicillin G, and 100 μg/ml streptomycin sulfate). P4-R5 cells are stably transfected with an LTR-lacZ cassette and upon successful infection by HIV-1 will express—galactosidase in a Tat-dependent manner, which can be detected in a chemiluminescence test. On the following day, aliquots of the fractions were added. Therefor the lyophilized fractions were resuspended in 80 μl of DMEM, and 25 μl each thereof was pipetted to P4-R5 cells, incubated at 37° C. for 1 hour and subsequently infected with HIV-1 NL4—3 (1 ng of p24 antigen). Virus stocks were obtained by transient infection of 293T cells with proviral DNA by the calcium phosphate method (CalPhos™ Mammalian Transfection Kit, Clontech). Virus stocks were harvested 48 hours post transfection, filtrated and used for infection. Three days post infection, β-galactosidase activity in infected P4-R5 cells was detected using GalScreen assay (TROPIX) as recommended by the manufacturer. Briefly, supernatant was removed, 40 μl of a 1:1 dilution of PBS/GalScreen+substrate was added, followed by incubation at room temperature for 30 min. Then 30 μl of the lysates were transferred into 96 well lumiplates. Subsequently, the lumines-cence was detected as relative light units per second in a luminometer (Berthold, ORION). From all measurements, the mean β-galactosidase background activity of non-infected control cells was subtracted. % infection values for each infection were calculated relative to no peptide containing controls (100%). The enzyme activities in measurements without ALB408-423 were set at 100%, and all other values were based thereon. The final purification (7th step) was examined under exactly the same conditions in TZM-bl cells (X. Wei et al., Antimicrob. Agents Chemother. 46: 1896, 2002).
1.6 mg of fraction 31 from the 7th step in Example 1 was dissolved in 160 μl of DMEM. Subsequently, 10 μl of serial dilutions of fraction 31 containing ALB408-423 were added to 60 μl of TZM-bl cells (60 μl) and infected with 1 ng of p24 antigen HIV-1 NL4—3 in a total volume of 100 μl. Three days later, infection rates were determined in a GalScreen assay (see Example 1).
(§1) 5000 TZM-bl cells were seeded in 100 μl of DMEM (10% FCS, 100 U/ml of penicillin G and 100 μg/ml of streptomycin sulfate). ALB408-423 was dissolved in PBS (10 mg/ml). One day later, 20 μl serial dilutions of ALB408-423 in PBS were added to cells and cells were subsequently infected with 0.5 ng of p24 antigen HIV-1 in a total volume of 200 μl. HIV-1 molecular clones differing in coreceptor tropism were used and generated as described (Papkalla et al., J. Virol. 76: 8455-9, 2002).
Table 1. Antiviral activity of various ALB fragments against X4 tropic HIV-1 NL4-3 infection. TZM-bl cells containing serial dilutions of synthetic peptides were infected with HIV-1 NL4-3 and infection rates were determined and calculated as described in example 1 and 2 at two days post infection. IC50 values were determined using the GraphPad Prism software package.
Various ALB408-423 derivatives containing N or C terminal deletions or amino acid substitutions (Table 1) were chemically synthesized and lyophilized peptides were dissolved in PBS. The antiviral activity was analyzed in TZM-bl cells using X4 tropic HIV-1 NL4-3 as described (example 4).

[2] = tested on: dual tropic (CXCR4 and CCR5 using) variant 92ht593.1; test: Infection of TZM-bl cells by dual tropic HIV-1, GalScreen; format: cell-based
Procedure: as §1
FIG. 3: Chemically synthesized ALB408-423 specifically blocks X4 tropic HIV-1 infection. TZM-bl cells containing indicated dilutions of peptide were infected with HIV-1 variants differing in their coreceptor tropism. 3 days later Gal Screen assay was used to measure infection rates. […] B) Infection rates in the presence of 500 μg/ml ALB408-423 showing that the peptide specifically blocks X4 but not R5 tropic HIV-1 infection. Data shown are mean values±standard deviation derived from triplicate infections relative to PBS containing cells (100% infection).
After 3 days, infection was detected using GalScreen assay (TROPIX) (example 1). […] In contrast, CCR5 tropic HIV-1 variants were not inhibited even in the presence of very high doses of ALB408-423 (500 μg/ml) (FIG. 3B). Due to the specific inhibition of the infection caused by X4-tropic HIV-1 variants, it is to be assumed that ALB408-423 interacts with the chemokine receptor CXCR4.
Virus stocks were first titrated on TZM-bl cells. Then TZM-bl cells containing 100 μM of peptides were infected with infectivity normalized amounts of X4, dualtropic (X4/R5) or R5 tropic HIV-1.
FIG. 10. ALB408-423 and truncated ALB derivatives specifically block X4 tropic HIV-1 infection. TZM-bl cells either containing PBS or 100 μM of indicated peptides were infected with normalized infectivities of X4, dualtropic or R5 tropic HIV-1 clones. Infection rates were measured 2 days post infection using the GalScreen assay. Shown are mean values (% of PBS treated control)±standard deviations derived from triplicate measurements.

X4 tropic HIV-1 NL4-3 [3] = test: X4 tropic HIV-1 infection and replication in PBMC, p24 antigen ELISA; format: cell-based; conditions: 100 μM peptide, day 6 post infection
Procedure: To analyze the effect of ALB408-423 and derivatives thereof in relevant primary cells, peripheral blood mononuclear cells were isolated from Buffy coat derived from the DRK-Blutspendedienst Baden-Württemberg-Hessen using Ficoll density centrifugation. 1×10^6 PBMC per ml were stimulated with 1 μg/ml phytohemagglutinine (PHA, Oxoid, #3085280) and 10 ng/ml Interleukin 2 (IL-2, Strathmann, #9511192) for three days. Thereafter cells were pelleted and resuspended in IL-2 containing medium. 1.5×10^5 PBMC (250 μl) were seeded in 96 well dishes, peptides were added and cells were infected with […] p24 antigen of X4 tropic HIV-1 NL4-3. Supernatants containing progeny virus were taken at day 1, 3 and 6 post infection. Virus production was measured by p24 antigen ELISA (SAIC-Frederick, Inc [AIDS & Cancer virus program]). […] In the presence of 20 μM peptides virus replication was severely impaired.
FIG. 11. ALB408-423 and derivatives inhibit X4 tropic HIV-1 infection of peripheral blood mononuclear cells (PBMC). Cells were incubated with indicated concentrations of ALB408-423 or truncated variants and infected with X4 tropic HIV-1. Supernatants obtained after 6 days were analyzed by p24 ELISA. Shown are mean p24 antigen values (ng/ml) derived from triplicate infections±standard deviation.

In the case of “LVRYTKKVPQVSTPTL [ALB408-423, LVRYTKKVPQVSTPTL]”, the IC50 (X4 tropic HIV-1 NL4-3 [1]; read-out: IC50, X4 tropic HIV-1 infection (Example 5), HIV-1 NL4-3) is reported as 10 to 20 µM, the IC50 (X4 tropic HIV-1 NL4-3 [1]; read-out: IC50 ± SEM, X4 tropic HIV-1 NL4-3, two days post infection, synthetic peptides) is reported as 7.6 ± 1.2 µM and the “inhibition of dualtropic HIV-1 clone 92ht593.1” value ([2]; 100 μM peptide) is reported as “only moderately”. For the same sequence, the “inhibition of dual tropic variant 92ht593.1” value ([2]; serial dilutions, compared with X4 tropic variants) was “blocked less efficiently” and the “p24 antigen in supernatants” value (X4 tropic HIV-1 NL4-3 [3]) was “No p24 antigen could be detected”.
